Measured values from the supplement of paper PMC11451515.

Tested on: NOMO1
Experiment: cell viability relative to DMSO control; higher = less cytotoxic
Settings: 48 h
In short: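 Viability is a per-plate percentage relative to DMSO wells, with cell-free wells as background. CellTiter-Glo One luminescence was read after 48 h at 37°C on 1536-well plates (5 μl) of NOMO1 or SEM (500 cells/well) or P12-Ichikawa (1000 cells/well) leukemia cells. The cells had been adapted for at least four passages in each medium and pin-dosed with library compounds in DMSO from 47 μM to 0.79 nM in 11 threefold steps.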

[1] = HPLM + 10% dialyzed FBS, 0.000781 µM
[2] = HPLM + 10% dialyzed FBS, 0.00234 µM
[3] = HPLM + 10% dialyzed FBS, 0.00702 µM
[4] = HPLM + 10% dialyzed FBS, 0.0211 µM
[5] = HPLM + 10% dialyzed FBS, 0.0632 µM
[6] = HPLM + 10% dialyzed FBS, 0.19 µM
[7] = HPLM + 10% dialyzed FBS, 0.569 µM
[8] = HPLM + 10% dialyzed FBS, 1.71 µM
[9] = HPLM + 10% dialyzed FBS, 5.12 µM
[10] = HPLM + 10% dialyzed FBS, 15.4 µM
[11] = HPLM + 10% dialyzed FBS, 46.1 µM
[12] = RPMI 5 mM glucose + 10% FBS, 0.000781 µM
[13] = RPMI 5 mM glucose + 10% FBS, 0.00234 µM
[14] = RPMI 5 mM glucose + 10% FBS, 0.00702 µM
[15] = RPMI 5 mM glucose + 10% FBS, 0.0211 µM
[16] = RPMI 5 mM glucose + 10% FBS, 0.0632 µM
[17] = RPMI 5 mM glucose + 10% FBS, 0.19 µM
[18] = RPMI 5 mM glucose + 10% FBS, 0.569 µM
[19] = RPMI 5 mM glucose + 10% FBS, 1.71 µM
[20] = RPMI 5 mM glucose + 10% FBS, 5.12 µM
[21] = RPMI 5 mM glucose + 10% FBS, 15.4 µM
[22] = RPMI 5 mM glucose + 10% FBS, 46.1 µM
[23] = RPMI 5 mM glucose + 10% dialyzed FBS, 0.000781 µM
[24] = RPMI 5 mM glucose + 10% dialyzed FBS, 0.00234 µM
[25] = RPMI 5 mM glucose + 10% dialyzed FBS, 0.00702 µM
[26] = RPMI 5 mM glucose + 10% dialyzed FBS, 0.0211 µM
[27] = RPMI 5 mM glucose + 10% dialyzed FBS, 0.0632 µM
[28] = RPMI 5 mM glucose + 10% dialyzed FBS, 0.19 µM
[29] = RPMI 5 mM glucose + 10% dialyzed FBS, 0.569 µM
[30] = RPMI 5 mM glucose + 10% dialyzed FBS, 1.71 µM
[31] = RPMI 5 mM glucose + 10% dialyzed FBS, 5.12 µM
[32] = RPMI 5 mM glucose + 10% dialyzed FBS, 15.4 µM
[33] = RPMI 5 mM glucose + 10% dialyzed FBS, 46.1 µM

SMILES	cell viability [1] [%]	cell viability [2] [%]	cell viability [3] [%]	cell viability [4] [%]	cell viability [5] [%]	cell viability [6] [%]	cell viability [7] [%]	cell viability [8] [%]	cell viability [9] [%]	cell viability [10] [%]	cell viability [11] [%]	cell viability [12] [%]	cell viability [13] [%]	cell viability [14] [%]	cell viability [15] [%]	cell viability [16] [%]	cell viability [17] [%]	cell viability [18] [%]	cell viability [19] [%]	cell viability [20] [%]	cell viability [21] [%]	cell viability [22] [%]	cell viability [23] [%]	cell viability [24] [%]	cell viability [25] [%]	cell viability [26] [%]	cell viability [27] [%]	cell viability [28] [%]	cell viability [29] [%]	cell viability [30] [%]	cell viability [31] [%]	cell viability [32] [%]	cell viability [33] [%]
COc1cc(N2CCC(N3CCN(C)CC3)CC2)ccc1Nc1ncnc(Nc2ccccc2[S+](=O)([O-])C(C)C)n1	92.5	92.9	95.9	111	65	123	144	117	102	54.4	31	110	103	113	119	88	117	115	108	110	62.5	43.2	87.6	87.7	91.9	89.3	69.1	107	123	114	109	58.3	34.5
NC\1=N\C(=O)N(\C=N1)[C@H]2C[C@H](O)[C@@H](CO)O2	110	138	101	115	101	107	91.4	82.4	60.2	46.5	43.6	91.8	106	89.6	92.8	93.4	93.7	98.9	85.4	71.1	51.8	31.5	109	122	107	112	98.6	109	114	96.7	76.5	65.9	36.1
COc1ccc2cc(-c3[nH]c(-c4ccc([S+](C)[O-])cc4)nc3-c3ccncc3)ccc2c1 (centres undefined)	115	118	124	118	136	143	148	126	120	143	111	100	103	114	113	114	99.1	107	111	108	110	134	111	98.5	106	118	121	113	130	123	127	150	119
CC1=C2N=C([NH]C2=CC(=C1)N3CCOCC3)\C4=C(NC[C@@H](O)C5=CC=CC(=C5)Cl)\C=C/NC4=O	86.2	100	105	99.8	98.4	92.8	79.3	65.4	61.2	44.2	44.7	104	103	109	99.1	95.7	108	89.8	73.7	68.9	65.3	57.4	99.6	101	90.4	91.9	96	87.6	72.8	67.1	53.6	57.2	49.1
O=C1[O][Pt]2([NH]C3CCCCC3[NH]2)[O]C1=O (centres undefined)	116	118	119	107	141	118	131	120	90.2	14.7	7.1	108	103	120	119	110	135	115	107	90.4	17.6	5.82	107	108	100	110	109	122	108	112	98.4	38.3	9.17
CC(C)[C@@H](N(CCCN)C(=O)C1=CC=C(C)C=C1)C/2=C(\CC3=CC=CC=C3)C(=O)C4=C(O2)C=C(Cl)C=C4	47.8	38.1	34.7	35.9	40.9	45.8	34.9	36.3	32.5	40.7	4.73	20.1	26.5	29	26.4	21.9	29	21.1	23.9	27.2	31.7	7.48	48.7	34.7	29.5	30.9	35.1	34.6	27.2	32.8	29.6	33.5	5.92
c1ccc(-c2nn3c(c2-c2ccnc4cc(OCCN5CCOCC5)ccc24)CCC3)nc1	122	126	113	129	133	119	124	108	117	96.1	70.6	86	99.6	107	105	111	108	108	99.2	97.8	91.3	91.7	66.2	116	102	108	106	108	109	101	98.5	92.8	83.4
NC/1=N/C(=O)N(/C=C1)[C@H]2CC[C@@H](CO)O2	76	106	107	103	97.5	101	107	92.1	82.8	82.2	14.2	75.6	91.3	85.7	96.4	87.1	92.3	85.7	89.2	91	93.1	8.01	70.8	94.6	92.2	98.5	101	105	108	95.9	74	88.7	6.05
CC(C)(O)CNc1nc(Nc2ccnc(C(F)(F)F)c2)nc(-c2cccc(C(F)(F)F)n2)n1	99.2	99.4	131	120	146	122	134	114	99.4	85.8	72.8	112	115	102	109	118	106	103	123	43.7	50.3	48.7	105	110	120	115	121	117	109	114	56.3	53.2	62.5
CCN(CC)CCOC1=CC=C(NC2=NC=C3\C=C(/C(=O)N(C)C3=N2)C4=C(Cl)C=CC=C4Cl)C=C1	116	138	121	115	108	96.4	97.5	80.5	16.1	10.1	2.65																						
CNC(=O)c1cc(Oc2ccc(NC(=O)Nc3cc(C(C)(C)C)nn3-c3ccc4ncccc4c3)c(F)c2)ccn1	123	121	121	128	127	170	135	155	157	156	122												119	124	125	140	151	154	160	158	155	164	123
CCOP(=O)(OCC)C(C)NC(=O)N(CCCl)N=O (centres undefined)												120	115	124	134	121	131	126	139	141	163	154	112	116	138	141	137	137	134	136	133	140	128
O=C(Oc1ccc([N+](=O)[O-])cc1)N1CCN(Cc2cccc(Oc3ccccc3)c2)CC1	115	110	112	113	113	126	104	126	120	102	122	95.6	101	112	113	113	123	110	105	110	109	112	93.9	98.5	103	99.8	99.9	98.3	103	114	104	112	105
CC1=C(C)C2=C(S1)[N]3C(=NN=C3[C@H](CC(=O)OC(C)(C)C)/N=C2/C4=CC=C(Cl)C=C4)C	104	97.6	92	102	96.1	70.7	28.9	52.4	15.7	10.5	10.1	88.2	99.2	96.4	88.4	86.2	81.8	27.3	50.5	12.1	10.6	11.1	101	97.5	92.5	87.7	96.8	81.9	29.5	55.3	11.7	10.6	10.5
c1cc(-c2sc(-c3ccncc3)c(-c3ccncc3)c2-c2ccncc2)ccn1	88.1	111	117	111	108	129	140	114	124	116	78.3	118	128	106	105	113	118	127	103	98.2	109	93.4	94.1	107	106	104	117	106	114	105	101	90.9	92.3
Cc1cc(SCc2sc(-c3ccc(C(F)(F)F)c(F)c3)nc2C)ccc1OCC(=O)O	104	110	120	87.7	114	103	110	95.4	93.7	96.6	92.9	98.2	90.4	86	90.3	91	98.8	99.6	88.8	88.7	92.6	86.8	99.5	103	93.5	95	99.2	111	97.9	94	104	87.4	97
